This experiment concerns the target T1, polycystin-2 channels (Mus musculus, UniProt O35245).
T1 construct: the mouse channel orthologue under endogenous expression in the kidney collecting duct; endogenous in cells; host or cells: primary inner medullary collecting duct (pIMCD) cells of ARL13B-EGFP mice
T1 sequence (O35245 1-966): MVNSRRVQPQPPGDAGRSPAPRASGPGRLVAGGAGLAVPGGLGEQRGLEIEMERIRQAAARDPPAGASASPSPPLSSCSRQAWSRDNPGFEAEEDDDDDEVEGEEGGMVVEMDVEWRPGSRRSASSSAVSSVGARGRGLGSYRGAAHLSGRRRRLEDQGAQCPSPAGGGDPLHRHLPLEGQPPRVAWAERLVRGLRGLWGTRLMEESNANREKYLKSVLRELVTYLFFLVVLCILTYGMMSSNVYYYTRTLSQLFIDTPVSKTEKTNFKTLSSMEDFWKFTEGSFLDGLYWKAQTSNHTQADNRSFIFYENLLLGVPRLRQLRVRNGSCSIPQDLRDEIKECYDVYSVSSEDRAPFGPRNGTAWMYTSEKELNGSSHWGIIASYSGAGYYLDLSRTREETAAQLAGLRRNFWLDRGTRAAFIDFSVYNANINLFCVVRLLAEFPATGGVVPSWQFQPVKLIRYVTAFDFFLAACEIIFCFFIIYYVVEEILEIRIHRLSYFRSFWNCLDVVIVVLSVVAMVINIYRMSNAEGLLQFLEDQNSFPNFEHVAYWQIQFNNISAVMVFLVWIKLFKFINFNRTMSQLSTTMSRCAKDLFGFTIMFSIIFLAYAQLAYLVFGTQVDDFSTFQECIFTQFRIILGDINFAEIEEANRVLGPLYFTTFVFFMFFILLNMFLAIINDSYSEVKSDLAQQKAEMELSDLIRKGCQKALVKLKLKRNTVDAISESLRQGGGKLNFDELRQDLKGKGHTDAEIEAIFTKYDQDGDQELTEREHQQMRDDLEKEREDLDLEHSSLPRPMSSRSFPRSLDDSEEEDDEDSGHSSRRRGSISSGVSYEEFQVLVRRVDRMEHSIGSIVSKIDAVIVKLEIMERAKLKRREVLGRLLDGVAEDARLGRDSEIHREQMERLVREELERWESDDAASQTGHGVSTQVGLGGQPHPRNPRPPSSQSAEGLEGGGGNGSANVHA
Description: Inside-out cilia patch of pIMCD cells, calcium opening of polycystin-2 channels. Type of experiment: cell-based. The following applies: Pkd2+/+ mice; read-out: EC50, potency of calcium opening polycystin-2 channels. As for the experimental part: Cell culture of primary inner medullary collecting duct cells and immortalized cell lines. Primary inner medullary collecting ducts cells (pIMCD) were isolated from WT or Pkd2^del-Z/del-Z mice co-expressing the ARL13B-EGFP cilia reporter using the previously described method (Liu et al., 2018). Briefly, inner medullae were removed from the kidney and disassociated using a Dulbecco's phosphate buffered solution (DPBS) containing 2 mg/ml collagenase A and 1 mg/ml hyaluronidase. After mechanical disassociation on ice, medullary cells were cultured in Dulbecco's modified essential medium (DMEM) supplemented with 10% fetal bovine serum (FBS) and 100 units/ml penicillin/100 μg/ml streptomycin. Cilia were patched from cells within 6 days after isolation and within one passage. HEK PKD2^Null cell lines were generated using the CRISPR/Cas9 gene editing kit available from Addgene and authenticated using PCR analysis, as previously described (Liu et al., 2018). […]
Electrophysiology. The electrophysiologist was blinded by a third party in the laboratory, where test groups were assigned a letter to conceal the genetic identity of the cells being evaluated. […] Ciliary ion currents were recorded using borosilicate glass electrodes polished to resistances of 14-23 MΩ using the cilium patch method previously described (Vien et al., 2020). Single channel currents measured in the inside-out configuration were recorded in symmetrical sodium concentrations. […] Calcium was buffered with 5 EGTA (ethylene glycol-bis(o-aminoethyl ether)-N,N,N′,N′-tetraacetic acid), 5 Na4-BAPTA (Glycine, N, N′-[1,2-ethanediylbis(oxy-2,1-phenylene)]bis[N-(carboxymethyl)]-,tetrasodium) and 0.5 EDTA […]; free calcium was calculated using Maxchilator and titration of 1 M CaCl2) solution (Bers et al., 2010); pH was adjusted to 7.3 using NaOH. […] Whole cell currents used to measure CDD were also recorded in symmetrical sodium concentration, placing the internal recording solution in the pipette electrode and the external recording solution in the bath. […]

As a reminder, the EC50 is the concentration needed to bring the measured effect to its halfway point.

`[Ca+2]` [Ca^2+, calcium]: the EC50 was determined as 1.2 ± 0.4 µM.

Source of the values: patent US20210369677A1, “SMALL MOLECULE ACTIVATORS OF POLYCYSTIN-2 (PKD2) AND USES THEREOF” (Northwestern University, priority 2020, published 2021).
